Read-outs that look alike come from different tables or passages of the source.
How the values were obtained:
MIA-PaCa-2 cells = experiment: Detection of ROS with DCFH-DA after PDT; format: cell-based, Human; settings: for ROS level after PDT (DCFH-DA): MIA-PaCa-2, 1, 5, 10, 20, 40, and 80 μM, 3 h, laser
Protocol: MIA-PaCa-2 cells (density: 5 × 10^3 cells/well) were seeded onto 96-well plates and incubated in a complete medium for 24 h at 37 °C. Then, the medium was replaced with a fresh culture medium containing chlorin e6 or rhodin g7 7^1-ethyl ester at different concentrations (1, 5, 10, 20, 40, and 80 μM) and then incubated for 3 h at 37 °C. After incubation, the cells were washed three times with PBS, and the cells were irradiated using a 630 nm laser at a power of 100 mW/cm^2 for 300 s. After irradiation, a fresh culture medium containing 20 μM dichlorodihydrofluorescin diacetate (DCFH-DA) was added, and the cells were incubated for another 20 min. Fluorescence detection of DCFH-DA was performed via the fluorescence microplate reader using the Spark Multimode Microplate Reader (Tecan Trading AG, Männedorf, Switzerland).

MIA PaCa-2 = experiment: MTT cytotoxicity (PDT and dark), MIA PaCa-2; format: cell-based, Human; settings: Homo sapiens, light or radiation study, 3 h exposure, 660 nm laser 0.5 J/cm^2, MTT after 24 h
Text: (§1) B16F10 (KCLB80008), MIA PaCa-2 (KCLB21420), PANC-1 (KCLB21469), HT-29 (KCLB30038), AsPC-1 (KCLB21682), and Raw 264.7 (KCLB40071) cells were procured from the Korean Cell Line Bank (KCLB, Seoul, Republic of Korea). AsPC-1 and RAW264.7 were thawed and maintained in RPMI-1640 media (Life Technologies corporation, Carlsbad, CA, USA) supplemented with 10% fetal bovine serum (Life Technologies corporation, USA) and 1% penicillin and streptomycin (Life Technologies corporation, USA), while MIA PaCa-2, PANC-1, HT-29, and B16F10 cell lines were cultured in DMEM (Life technologies corporation, USA) containing 10% fetal bovine serum and 1% penicillin and streptomycin. All the cells were cultured at 37 °C in a 5% CO2 incubator.
(§2) After seeding B16F10 or MIA PaCa-2 at a density of 5 × 10^3 cells/well and PANC-1, HT-29, or AsPC-1 at a density of 1 × 10^4 cells/well in 96-well plates, the cells were incubated overnight at 37 °C in a CO2 incubator. The cells were exposed to different doses of either chlorin e6 or rhodin g7 7^1-ethyl ester (0, 2.5, 5, 10, 20, 40, and 80 µM) for 3 h. After the incubation, the cells were either subjected to a 660 nm laser with a power density of 50 mW (0.5 J/cm^2) or not and were further incubated for 24 h at 37 °C. Moreover, the MTT assay was used to analyze the cell viability. The absorbance values of 540 nm were then measured using a microplate reader (Multiskan GO, Thermo Fisher Scientific, Oy, Ratastie 2, FI-01620 Vantaa, Finland).

[1] = MTT cytotoxicity (PDT and dark), MIA PaCa-2; format: cell-based, Human; settings: human, MIA PaCa-2 cells, no illumination, MTT after 24 h
Text: as §1, §2

[2] = MTT cytotoxicity (PDT and dark), PANC-1; format: cell-based, Human; settings: human, PANC-1 cells, no illumination, MTT after 24 h
Text: as §1, §2

PANC-1 = experiment: MTT cytotoxicity (PDT and dark), PANC-1; format: cell-based, Human; settings: Homo sapiens, light or radiation study, 3 h exposure, 660 nm laser 0.5 J/cm^2, MTT after 24 h
Text: as §1, §2

[3] = MTT cytotoxicity (PDT and dark), RAW264.7 normal cell line; format: cell-based, Murine; settings: mouse, RAW264.7 cells (normal macrophage), RAW264.7 normal macrophage
Text: as §1, §2

[4] = MTT cytotoxicity, statements over all cell lines of the panel; format: cell-based; settings: mouse (B16F10), human (MIA PaCa-2, PANC-1, HT-29, AsPC-1), B16F10, MIA PaCa-2, PANC-1, HT-29 and AsPC-1 cells, read-out: cellular viability
Text: as §1
as §2, with “The cells were exposed to different doses of either chlorin e6 or rhodin g7 7^1-ethyl ester (0, 2.5, 5, 10, 20, 40, and 80 µM) for 3 h.” left out

[5] = system: B16F10, MIA PaCa-2, PANC-1, HT-29, AsPC-1; experiment: as above; format: cell-based
Text: as §1
as §2, with “The cells were exposed to different doses of either chlorin e6 or rhodin g7 7^1-ethyl ester (0, 2.5, 5, 10, 20, 40, and 80 µM) for 3 h.” left out

[6] = MTT cytotoxicity (PDT and dark), HT29; format: cell-based, Human; settings: human, HT-29 cells, no illumination, MTT after 24 h
Text: as §1, §2

HT29 = experiment: MTT cytotoxicity (PDT and dark), HT29; format: cell-based, Human; settings: Homo sapiens, HT-29, light or radiation study, 3 h exposure, 660 nm laser 0.5 J/cm^2, MTT after 24 h
Text: as §1, §2

[7] = 660 nm laser 0.5 J/cm^2, MTT after 24 h, read-out: IC50, PDT cytotoxicity
[8] = no illumination, MTT after 24 h, read-out: IC50, dark cytotoxicity
[9] = complete absence of illumination, read-out: IC50 values dark toxicity, range over cell lines
[10] = light or radiation study, PDT, light dose 0.5 J/cm^2, five cancer cell lines, read-out: IC50 values post illumination, range over cancer cell lines

Row | Structure (SMILES) | ROS level after PDT (DCFH-DA) (MIA-PaCa-2 cells) | ROS production compared to chlorin e6-PDT (MIA-PaCa-2 cells; MIA-PaCa-2, all concentrations (1-80 μM)) | IC50 (MIA PaCa-2) | IC50 [1] | IC50 [2] | IC50 (PANC-1) | IC50 [3, 7] | IC50 [3, 8] | viability ([4]; rhodin g7 7^1-ethyl ester dark, concentrations as high as 37.4 µM) | viability ([4]; rhodin g7 7^1-ethyl ester dark, doses as high as 660 µM, all cell lines) | IC50 [5, 9] | higher cytotoxicity compared to chlorin e6 ([5]; laser 0.5 J/cm^2, majority of the cancer cell lines) | IC50 [5, 10] | cellular viability ([5]; rhodin g7 7^1-ethyl ester PDT, concentrations higher than 53.7 µM, all cell lines) | IC50 [6] | IC50 (HT29) | viability ([4]; chlorin e6 dark, concentrations as high as 169.2 µM) | viability ([4]; chlorin e6 dark, concentrations up to 729.4 µM, all cell lines) | cellular viability ([5]; chlorin e6-PDT, concentrations greater than 59.8 µM, all cell lines) | viability at 7.8 µM ([5]; chlorin e6-PDT, dose of 7.8 µM, all cell lines, vs vehicle-treated control)
1 | C=Cc1c(C)c2cc3nc(c(CC(=O)O)c4[nH]c(cc5nc(cc1[nH]2)C(C(=O)OCC)=C5CC)c(C)c4C(=O)O)[C@@H](CCC(=O)O)[C@@H]3C [rhodin g7 7^1-ethyl ester] | dose-dependent increase in ROS | likely to produce more ROS than chlorin e6-PDT | 7.6 µM | 161 µM | 279 µM | 8.4 µM | 55.2 µM | 466 µM | ≥ 90% | < 10% | 163 to 389 µM | 2 fold | 8.4 to 49.1 µM | 10% | 223 µM | 30.1 µM |  |  |  | 
2 | C=Cc1c(C)c2cc3nc(c(CC(=O)O)c4[nH]c(cc5nc(cc1[nH]2)C(C)=C5CC)c(C)c4C(=O)O)[C@@H](CCC(=O)O)[C@@H]3C [chlorin e6] | dose-dependent increase in ROS |  | 23.3 µM | 430 µM | 302 µM | 17.9 µM | 45.4 µM | 456 µM |  |  | 250 to 564 µM |  | 17.6 to 33.8 µM |  | 543 µM | 28.1 µM | ≥ 90% | < 10% | 10% | ≥ 90%
